In US9499509B2, “Dihydrochalcone derivatives and their use as antibiotic agents” (UNIVERSITÉ DU QUÉBEC À CHICOUTIMI, priority 2012, dated 2016):
Values after ≈ are worked out from the molar mass of the structure shown.

Legend:
[1] = test system: S. aureus wild type strain (ATCC 25923); test: Antibiotic assay (absorption 660 nm, Example 2), S. aureus wild type; assay type: cell-based, Staphylococcus aureus; settings: for MIC: S. aureus WT (ATCC 25923); for S. aureus WT ATCC 25923 (toxicity on bacteria): Table 7, same values as MIC of Table 6
Description: (§1) Antibiotic agents. Gentamicin sulfate was provided by Calbiochem. Chloramphenicol was provided by Sigma-Aldrich.
(§2) Antibiotic assay. […] The bacteria strains were inoculated in nutrients broth. […] All bacteria were plated in nutrients broth at a concentration of 450 000 bacteria/m L.
(§3) Compounds IV to XXI were diluted in dimethylsulfoxide. […] The compounds were tested at 8 different concentrations.
(§4) Each well contained: 100 μL of bacteria, 100 μL of the compounds tested. The plates were incubated at 37° C. for 6 h. The absorption was read using a Varioskan flash multimode Reader™ (Thermo Scientific) at 660 nm.
(§5) MRSA. Ten (10) strains of MRSA obtained as described above were tested along with an S. aureus wild type (WT) strain (ATCC 25923).

[2] = test system: WS-1 cell lines; test: Cytotoxicity assay on WS-1 (Example 2); assay type: cell-based; design: unit not given here; settings: Table 7; WS-1, 48 h
Description: Cytotoxicity assay. […] The WS-1 cell lines were provided by ATCC. […] The compounds tested were then added at 8 different concentrations. […] In Table 7, the therapeutic indexes of compounds IV to XXI are presented.

[3] = test system: MRSA strains; test: Antibiotic assay (absorption 660 nm, Example 2), MRSA strains; assay type: cell-based, Staphylococcus aureus
Description: as §1, §2, §3, §4, §5

With `O=C(CCc1ccccc1)c1c(O)cc(O)c2c1O[C@H](c1ccc(O)cc1)CC2` [V] the MIC [1] was 2.5 ± 0.2 µM (≈ 0.976 µg/mL), the “S. aureus WT ATCC 25923 (toxicity on bacteria)” value [1] was 2.5 ± 0.2 and the “WS-1 (toxicity on normal cells, fibroblast)” value [2] was greater than 50. For the same compound, the MIC ([3]; MRSA 1) was 4.1 ± 0.1 µM (≈ 1.6 µg/mL), the MIC ([3]; MRSA 2) was 2.58 ± 0.10 µM (≈ 1.01 µg/mL) and the MIC ([3]; MRSA 3) was 3.8 ± 0.2 µM (≈ 1.48 µg/mL). For the same compound, the MIC ([3]; MRSA 4) was 4.7 ± 0.4 µM (≈ 1.84 µg/mL), the MIC ([3]; MRSA 5) was 4.4 ± 0.1 µM (≈ 1.72 µg/mL) and the MIC ([3]; MRSA 6) was 6.9 ± 0.4 µM (≈ 2.69 µg/mL). For the same compound, the MIC ([3]; MRSA 7) was 3.0 ± 0.2 µM (≈ 1.17 µg/mL), the MIC ([3]; MRSA 8) was 3.8 ± 0.4 µM (≈ 1.48 µg/mL) and the MIC ([3]; MRSA 9) was 6.2 ± 0.4 µM (≈ 2.42 µg/mL). It also gave an MIC ([3]; MRSA 10) of 5.0 ± 0.3 µM (≈ 1.95 µg/mL).
With `COc1ccc(CCC(=O)c2c(O)cc(O)c3c2OC(c2ccc(O)cc2)C(O)C3)cc1` (centres unmarked) [XX] the MIC [1] was 14.0 ± 0.8 µM (≈ 6.11 µg/mL), the “S. aureus WT ATCC 25923 (toxicity on bacteria)” value [1] was 14.0 ± 0.8 and the “WS-1 (toxicity on normal cells, fibroblast)” value [2] was greater than 50. For the same compound, the MIC ([3]; MRSA 1) was 14 ± 1 µM (≈ 6.11 µg/mL), the MIC ([3]; MRSA 2) was 11.4 ± 0.5 µM (≈ 4.98 µg/mL) and the MIC ([3]; MRSA 3) was 8.9 ± 0.3 µM (≈ 3.88 µg/mL). For the same compound, the MIC ([3]; MRSA 4) was 7.6 ± 0.2 µM (≈ 3.32 µg/mL), the MIC ([3]; MRSA 5) was 3.8 ± 0.3 µM (≈ 1.66 µg/mL) and the MIC ([3]; MRSA 6) was 11.2 ± 1.0 µM (≈ 4.89 µg/mL). It also gave an MIC ([3]; MRSA 7) of 12.1 ± 0.7 µM (≈ 5.28 µg/mL), an MIC ([3]; MRSA 8) of 7.0 ± 1.0 µM (≈ 3.06 µg/mL) and an MIC ([3]; MRSA 9) of 12 ± 1 µM (≈ 5.24 µg/mL). The MIC ([3]; MRSA 10) was 12.6 ± 0.3 µM (≈ 5.5 µg/mL).
In the case of `COc1ccc(CCC(=O)c2c(O)cc(O)c3c2OC(c2ccc(O)cc2)C(O)C3)cc1` (centres unmarked) [XXI], the MIC [1] is reported as 28 ± 2 µM (≈ 12.2 µg/mL), the “S. aureus WT ATCC 25923 (toxicity on bacteria)” value [1] is reported as 28 ± 2 and the “WS-1 (toxicity on normal cells, fibroblast)” value [2] is reported as greater than 50. It also gave an MIC ([3]; MRSA 1) of 17 ± 2 µM (≈ 7.42 µg/mL), an MIC ([3]; MRSA 2) of 7 ± 2 µM (≈ 3.06 µg/mL) and an MIC ([3]; MRSA 3) of 8.5 ± 0.6 µM (≈ 3.71 µg/mL). The MIC ([3]; MRSA 4) was 12.3 ± 0.5 µM (≈ 5.37 µg/mL), the MIC ([3]; MRSA 5) was 7.7 ± 0.6 µM (≈ 3.36 µg/mL) and the MIC ([3]; MRSA 6) was 12 ± 1 µM (≈ 5.24 µg/mL). For the same compound, the MIC ([3]; MRSA 7) was 11.4 ± 0.5 µM (≈ 4.98 µg/mL), the MIC ([3]; MRSA 8) was 8.2 ± 0.2 µM (≈ 3.58 µg/mL) and the MIC ([3]; MRSA 9) was 10.8 ± 0.8 µM (≈ 4.71 µg/mL). For the same compound, the MIC ([3]; MRSA 10) was 12 ± 1 µM (≈ 5.24 µg/mL).
`COc1ccc(CCC(=O)c2c(O)cc(O)c3c2O[C@H](c2ccc(O)cc2)CC3)cc1` [VIII] was tested, and the MIC [1] was greater than 50 µM, the “S. aureus WT ATCC 25923 (toxicity on bacteria)” value [1] was greater than 50 and the “WS-1 (toxicity on normal cells, fibroblast)” value [2] was greater than 50. It also gave an MIC ([3]; MRSA 1) greater than 50 µM, an MIC ([3]; MRSA 2) greater than 50 µM and an MIC ([3]; MRSA 3) greater than 50 µM. It also gave an MIC ([3]; MRSA 4) greater than 50 µM, an MIC ([3]; MRSA 5) greater than 50 µM and an MIC ([3]; MRSA 6) greater than 50 µM. For the same compound, the MIC ([3]; MRSA 7) was greater than 50 µM, the MIC ([3]; MRSA 8) was greater than 50 µM and the MIC ([3]; MRSA 9) was greater than 50 µM. The MIC ([3]; MRSA 10) was greater than 50 µM.
With `COc1cc(O)c(C(=O)CCc2ccc(O)cc2)c2c1CC[C@@H](c1ccc(O)cc1)O2` [XI] the MIC [1] was less than 0.39 µM, the “S. aureus WT ATCC 25923 (toxicity on bacteria)” value [1] was less than 0.39 and the “WS-1 (toxicity on normal cells, fibroblast)” value [2] was greater than 50. The MIC ([3]; MRSA 1) was less than 0.39 µM, the MIC ([3]; MRSA 2) was less than 0.39 µM and the MIC ([3]; MRSA 3) was less than 0.39 µM. For the same compound, the MIC ([3]; MRSA 4) was less than 0.39 µM, the MIC ([3]; MRSA 5) was less than 0.39 µM and the MIC ([3]; MRSA 6) was less than 0.39 µM. The MIC ([3]; MRSA 7) was less than 0.39 µM, the MIC ([3]; MRSA 8) was less than 0.39 µM and the MIC ([3]; MRSA 9) was less than 0.39 µM. The MIC ([3]; MRSA 10) was less than 0.39 µM.
For `O=C(CCc1ccccc1)c1c(O)cc2c(c1O)CC(O)C(c1ccc(O)cc1)O2` (racemic) [XIII], the MIC [1] was 3.2 ± 0.2 µM (≈ 1.3 µg/mL), the “S. aureus WT ATCC 25923 (toxicity on bacteria)” value [1] was 3.2 ± 0.2 and the “WS-1 (toxicity on normal cells, fibroblast)” value [2] was 10.1 ± 0.8. The MIC ([3]; MRSA 1) was 2.9 ± 0.2 µM (≈ 1.18 µg/mL), the MIC ([3]; MRSA 2) was 2.7 ± 0.1 µM (≈ 1.1 µg/mL) and the MIC ([3]; MRSA 3) was 7.8 ± 0.5 µM (≈ 3.17 µg/mL). For the same compound, the MIC ([3]; MRSA 4) was 6.8 ± 0.7 µM (≈ 2.76 µg/mL), the MIC ([3]; MRSA 5) was 2.7 ± 0.3 µM (≈ 1.1 µg/mL) and the MIC ([3]; MRSA 6) was 5.4 ± 0.4 µM (≈ 2.19 µg/mL). It also gave an MIC ([3]; MRSA 7) of 2.0 ± 0.2 µM (≈ 0.813 µg/mL), an MIC ([3]; MRSA 8) of 3.4 ± 0.3 µM (≈ 1.38 µg/mL) and an MIC ([3]; MRSA 9) of 2.9 ± 0.1 µM (≈ 1.18 µg/mL). For the same compound, the MIC ([3]; MRSA 10) was 4.2 ± 0.8 µM (≈ 1.71 µg/mL).
For `O=C(CCc1ccccc1)c1c(O)cc(O)c2c1OC(c1ccc(O)cc1)C(O)C2` (centres unmarked) [XVIII], the MIC [1] was 9.9 ± 0.7 µM (≈ 4.02 µg/mL), the “S. aureus WT ATCC 25923 (toxicity on bacteria)” value [1] was 9.9 ± 0.7 and the “WS-1 (toxicity on normal cells, fibroblast)” value [2] was greater than 50. It also gave an MIC ([3]; MRSA 1) of 12 ± 1 µM (≈ 4.88 µg/mL), an MIC ([3]; MRSA 2) of 14 ± 1 µM (≈ 5.69 µg/mL) and an MIC ([3]; MRSA 3) of 15.9 ± 0.8 µM (≈ 6.46 µg/mL). For the same compound, the MIC ([3]; MRSA 4) was 15 ± 1 µM (≈ 6.1 µg/mL), the MIC ([3]; MRSA 5) was 11.5 ± 0.4 µM (≈ 4.67 µg/mL) and the MIC ([3]; MRSA 6) was 11 ± 2 µM (≈ 4.47 µg/mL). The MIC ([3]; MRSA 7) was 7.5 ± 0.4 µM (≈ 3.05 µg/mL), the MIC ([3]; MRSA 8) was 9.5 ± 1.0 µM (≈ 3.86 µg/mL) and the MIC ([3]; MRSA 9) was 13 ± 2 µM (≈ 5.28 µg/mL). The MIC ([3]; MRSA 10) was 12 ± 1 µM (≈ 4.88 µg/mL).
In the case of `O=C(CCc1ccccc1)c1c(O)cc(O)c2c1O[C@@H](c1ccc(O)cc1)CC2` [VI], the MIC [1] is reported as 2.7 ± 0.3 µM (≈ 1.05 µg/mL), the “S. aureus WT ATCC 25923 (toxicity on bacteria)” value [1] is reported as 2.7 ± 0.3 and the “WS-1 (toxicity on normal cells, fibroblast)” value [2] is reported as greater than 50. The MIC ([3]; MRSA 1) was 3.5 ± 0.1 µM (≈ 1.37 µg/mL), the MIC ([3]; MRSA 2) was 2.9 ± 0.2 µM (≈ 1.13 µg/mL) and the MIC ([3]; MRSA 3) was 3.8 ± 0.3 µM (≈ 1.48 µg/mL). For the same compound, the MIC ([3]; MRSA 4) was 5.2 ± 0.4 µM (≈ 2.03 µg/mL), the MIC ([3]; MRSA 5) was 4.9 ± 0.6 µM (≈ 1.91 µg/mL) and the MIC ([3]; MRSA 6) was 14.2 ± 0.9 µM (≈ 5.54 µg/mL). It also gave an MIC ([3]; MRSA 7) of 3.4 ± 0.2 µM (≈ 1.33 µg/mL), an MIC ([3]; MRSA 8) of 3.8 ± 0.3 µM (≈ 1.48 µg/mL) and an MIC ([3]; MRSA 9) of 4.7 ± 0.2 µM (≈ 1.84 µg/mL). For the same compound, the MIC ([3]; MRSA 10) was 4.65 ± 0.06 µM (≈ 1.82 µg/mL).
